From the supplement of paper PMC13380429
Counter-ions that a name gives are not always drawn.

How the values were obtained:
Details in all cases: 72 h
Caco-2 [1] = test: cell viability relative to DMSO; higher = less toxic
Calu-3 [2] = test: as above
HepG2 [3] = test: as above
U2OS [4] = test: as above
Vero E6 [5] = test: as above
Caco-2 [6] = test: relative viability EC50 (midpoint between 100% and the lowest measured viability); higher = less toxic
Calu-3 [7] = test: as above
HepG2 [8] = test: as above
U2OS [9] = test: as above
Vero E6 [10] = test: as above
Caco-2 [11] = test: drug sensitivity score (DSS) for viability; higher = more toxic; extreme values may be limits of the assay
Calu-3 [12] = test: as above
HepG2 [13] = test: as above
U2OS [14] = test: as above
Vero E6 [15] = test: as above

SMILES	cell viability (Caco-2 [1]; 1 nM) [%]	cell viability (Caco-2 [1]; 10 nM) [%]	cell viability (Caco-2 [1]; 100 nM) [%]	cell viability (Caco-2 [1]; 1000 nM) [%]	cell viability (Caco-2 [1]; 10000 nM) [%]	cell viability (Calu-3 [2]; 1 nM) [%]	cell viability (Calu-3 [2]; 10 nM) [%]	cell viability (Calu-3 [2]; 100 nM) [%]	cell viability (Calu-3 [2]; 1000 nM) [%]	cell viability (Calu-3 [2]; 10000 nM) [%]	cell viability (HepG2 [3]; 1 nM) [%]	cell viability (HepG2 [3]; 10 nM) [%]	cell viability (HepG2 [3]; 100 nM) [%]	cell viability (HepG2 [3]; 1000 nM) [%]	cell viability (HepG2 [3]; 10000 nM) [%]	cell viability (U2OS [4]; 1 nM) [%]	cell viability (U2OS [4]; 10 nM) [%]	cell viability (U2OS [4]; 100 nM) [%]	cell viability (U2OS [4]; 1000 nM) [%]	cell viability (U2OS [4]; 10000 nM) [%]	cell viability (Vero E6 [5]; 1 nM) [%]	cell viability (Vero E6 [5]; 10 nM) [%]	cell viability (Vero E6 [5]; 100 nM) [%]	cell viability (Vero E6 [5]; 1000 nM) [%]	cell viability (Vero E6 [5]; 10000 nM) [%]	relative viability EC50 (Caco-2 [6]) [µM]	relative viability EC50 (Calu-3 [7]) [µM]	relative viability EC50 (HepG2 [8]) [µM]	relative viability EC50 (U2OS [9]) [µM]	relative viability EC50 (Vero E6 [10]) [µM]	drug sensitivity score (Caco-2 [11])	drug sensitivity score (Calu-3 [12])	drug sensitivity score (HepG2 [13])	drug sensitivity score (U2OS [14])	drug sensitivity score (Vero E6 [15])
CC(C)n1nc(-c2cc3cc(O)ccc3[nH]2)c2c(N)ncnc21 [PP242]	104	88.9	80.4	41.4	31.3	107	94.2	79.6	26.5	20.1	100	121	90.2	50	19.8	99.2	99	96	56.1	16.4	107	105	96.2	67.9	15.9	0.208	0.203	0.652	0.927	1.26	13.1	16	10.8	9.8	8.7
COc1ccccc1-c1c[nH]c2ncc(-c3cncc(C(=O)N(C)C)c3)cc12 [PPY-A]	88.4	119	102	106	102	108	96.4	95.3	115	126	120	96.9	92.1	114	99.7	95.4	112	101	101	96.4	95.4	100	100	101	112	> 10	> 10	> 10	> 10	> 10	0	0	0	0	0
C=CC[N+]1([C@H]2C[C@H]3[C@@H]4CC[C@H]5C[C@H](O)[C@@H](N6CCOCC6)C[C@]5(C)[C@H]4CC[C@]3(C)[C@H]2OC(C)=O)CCCC1 [ROCURONIUM BROMIDE]	104	103	107	132	79.8	98.1	105	107	94.9	105	97.7	113	108	111	108	106	99.3	103	103	108	91	95.1	89.5	88.5	95.6	> 10	> 10	> 10	> 10	> 10	0.2	0	0	0	0
N[C@@H](CSS(=O)(=O)O)C(=O)O [S-sulfo-L-cysteine]	97.9	105	88.1	100	94.2	97.7	92.6	94.4	95.8	95.2	108	101	103	94.8	94.5	94.4	102	95	102	98.4	98.3	96.2	103	97.5	102	> 10	> 10	> 10	> 10	> 10	0	0	0	0	0
COCCN1CCC(C(=O)NO)(S(=O)(=O)c2ccc(Oc3ccc(OC(F)(F)F)cc3)cc2)CC1 [SD-2590]	97.8	103	95.9	98.8	107	93.9	96.8	96.9	98.8	88.1	95.9	93.8	93.9	89	91.6	98.2	103	92.2	100	98.8	97.6	94	98.7	92.2	103	> 10	> 10	> 10	> 10	> 10	0	0.1	0	0	0
CC(C)(C)c1ccc(S(=O)(=O)NCc2ccc(C(=O)Nc3cccnc3)cc2)cc1 [STF-31]	96.7	99.3	96.2	89.6	5.5	90.7	96.3	100	106	7.7	105	103	106	76.5	16.9	103	98.8	106	28.8	0.2	103	102	106	101	2.9	2.26	3.48	1.45	0.698	3.2	7	4.7	8.1	13.6	5.4
CN[C@@H]1[C@H](O[C@H]2[C@H](O[C@H]3[C@H](O)[C@@H](O)[C@H](N=C(N)N)[C@@H](O)[C@@H]3N=C(N)N)O[C@@H](C)[C@]2(O)C=O)O[C@@H](CO)[C@H](O)[C@H]1O [STREPTOMYCIN SULFATE [5mM; 10% aq DMSO + 5mM ethanolamine]]	95	106	88.5	95.7	98.1	87.6	102	86.6	91.9	91.7	101	105	102	101	98.2	98.7	100	94.5	99.5	95.7	97.8	98.5	99.9	95.2	98.3	> 10	> 10	> 10	> 10	> 10	0	0	0	0	0
O=C1CC(=O)c2c(Cl)c(Cl)c(Cl)c(Cl)c21 [TCID]	120	102	98.3	91.1	95.6	88	88.5	91.7	77.9	89.2	99.9	101	104	107	107	101	103	106	104	94.6	101	99.1	97	101	100	> 10	> 10	> 10	> 10	> 10	0	0	0	0	0
COc1cc2c(cc1OC)CN(C(=O)[C@@H](NCc1ccncc1)C(C)(C)C)CC2 [TCS-OX2-29]	96.9	95.2	97.3	99.2	91.1	114	88.9	103	98.6	91.7	101	93.1	103	94.3	102	94.6	100	92.6	98.3	99.7	100	91.9	96.8	93.9	96.9	> 10	> 10	> 10	> 10	> 10	0	0	0	0	0
O=C(NC(=O)c1c(F)cccc1Cl)NC1c2ccccc2-c2ccccc21 [TMN-355]	93.1	93.7	86.8	92.1	104	88	93.9	108	91.7	97.6	97.4	103	101	109	108	97.4	99.9	96.9	94.2	102	100	91.9	104	98.4	106	> 10	> 10	> 10	> 10	> 10	0	0	0	0	0
CC[C@@H](c1cccc(O)c1)[C@@H](C)CN(C)C [Tapentadol (hydrochloride)]	93.5	99.6	96.3	91.7	107	89	80.2	102	90.9	92.5	97	90.6	95.2	101	99.9	97	99.7	102	93.9	97.8	103	108	97.3	97.1	96.3	> 10	> 10	> 10	> 10	> 10	0	0.1	0	0	0
N[C@@H](Cn1ccc(=O)n(Cc2ccccc2C(=O)O)c1=O)C(=O)O [UBP-302]	91.6	93	91.2	89.6	98.1	105	94.8	107	115	107	103	101	97.9	101	104	99	95.5	97.6	92.7	98.7	101	98.6	103	101	102	> 10	> 10	> 10	> 10	> 10	0	0	0	0	0
O=C(c1cncc(Br)c1)N1CCC(N2CCCC2)CC1 [UNC669]	99.1	105	90.5	111	92.7	99.3	110	93.7	98.4	98.3	98.3	102	103	93.4	101	97.1	106	95.1	102	93.6	101	102	95.7	100	97.8	> 10	> 10	> 10	> 10	> 10	0	0	0	0	0
C[C@H](NC(=O)/C(C#N)=C/c1cccc(Br)n1)c1ccccc1 [WP1066]	95.8	96.7	96.4	104	20.1	102	93	90.6	103	75.4	100	101	105	94.2	10.3	102	99.2	105	98.5	0.7	97.3	96.8	98.3	97.6	15.9	3.45	> 10	2.66	3.06	2.96	4.1	0.8	5.8	5.7	5
